Legend:
[1] = DPPH radical scavenging by spectrophotometry; type: biochemical; conditions: 30 min at 22 to 24° C., 515 nm, concentrations as quercetin equivalent, read-out: SC50 (concentration required to obtain 50% of a maximum scavenging capacity)
Protocol: After a 30 min incubation at 22 to 24° C., the resultant absorbance was recorded at 515 nm by a double-beam spectrophotometer model UV-2401 (Shimadzu Scientific Instruments Inc., Columbia, Md.). Ascorbate, propyl gallate, and quercetin were used as reference standard. The scavenging capacity%=[1-((Abs of cranberry crude extract/fractions-Abs of blank)/Abs control)]*100. […] Plant Sci. 2002, 163, 1161-1168). The cranberry crude extract/fractions were evaluated and compared with ascorbic acid, propyl gallate and quercetin for the free radical scavenging activity toward stable DPPH radicals. […] Specifically, in referring to FIG. 21, the final concentration of DPPH radical was […].

[2] = system: trout hemoglobin-mediated lipid oxidation in washed cod muscle; test: Hemoglobin-mediated lipid oxidation in washed cod muscle (TBARS); conditions: for Effect on lipid oxidation in washed cod muscle: hemoglobin-mediated, 2° C. storage, FIG. 22 and 23; for Inhibition in TBARS formation: washed cod muscle
Protocol: Furthermore, cod muscle and trout hemoglobin were prepared according to the method described by Richards et al., Role of deoxyhemoglobin in lipid oxidation of washed cod muscle mediated by trout, poultry and beef hemoglobins. Meat Sci. 2002, 62, 157-163. The hemoglobin-mediated lipid oxidation system consisted of washed cod muscle, cranberry crude extract/fractions, streptomycin sulfate, and trout hemoglobin. The final concentration of hemoglobin and cranberry extract/fractions was 12 and 37/74 μmol per kg washed cod muscle, respectively. A control sample containing no cranberry crude extract/fractions was also prepared. The final moisture content of washed cod muscle was adjusted to 90%. pH was adjusted to between 6.10 and 6.30 by 1 M NaOH or HCl. All samples were stored at 2° C. for 7 to 9 days.
The progress of lipid oxidation in washed cod muscle was followed by periodically removing samples and quantifying TBARS formed by a modified method of Buege and Aust Microsomal lipid peroxidation. Method. Enzymol. 1978, LII, 302-310 as described by Richards et al., Role of deoxyhemoglobin in lipid oxidation of washed cod muscle mediated by trout, poultry and beef hemoglobins. Meat Sci. 2002, 62, 157-163. Lag time (LT) is defined as extension in stability compared to control sample which was stable for around 1 day. All trials in this study were conducted in duplicate or triplicate and in each trial triplicate determinations were performed

[3] = system: salmon oil-in water emulsion; test: Lipid oxidation in salmon oil-in water emulsion; conditions: 400 ppm, 10% salmon oil, 0.5% tween 20, pH 3.0, 27° C.
Protocol: Similarly, applicants have tested cranberry fractions in various emulsion systems (FIGS. 7-0). More specifically, FIG. 7, illustrates the effect of quercetin on lipid oxidation in salmon oil-in water emulsion. […] The emulsion consisted of 10% (w/w) salmon oil, 0.5% (w/w) tween 20 and 10 mM pH 3.0 acetate-imidazole buffer. Quercetin was added into the emulsion samples at the level of 400 ppm. The emulsion samples were oxidized in a shaker oven at 27° C. Likewise, FIG. 8, also illustrates the effect of cranberry fractions on lipid oxidation in salmon oil-in water emulsion. However, cranberry fractions and quercetin were added into the emulsion samples at the level of 400 ppm. Also, FIGS. 9 and 10 illustrate the effect of cranberry fractions on lipid oxidation in salmon oil-in water emulsion. However, 10% salmon oil was used in both fraction 4 and control treated samples, whereas 9.2% oil was used in the fraction 2 treated sample.

[4] = system: mechanically separated turkey (MST); test: Lipid oxidation (TBARS) in mechanically separated turkey during iced storage

EC50 [1] | Structure (SMILES) | Effect on lipid oxidation in washed cod muscle [2] | Inhibition in TBARS formation ([2]; 37 μmol quercetin per kg) | Inhibition in TBARS formation ([2]; 74 mmole quercetin equivalent) | Effect on lipid oxidation in emulsion systems [3] | Inhibition on lipid oxidation of MST ([4]; 210 umol quercetin/kg MST, 2° C. storage) | Inhibition of lipid oxidation in MST ([4]; quercetin at 50 umol/kg, precipitate added on a quercetin equivalent basis (FIG. 5))
12.2 µM | O=C1O[C@H]([C@@H](O)CO)C(O)=C1O [ascorbic acid] | – | – | – | – | – | –
5.07 µM | CCCOC(=O)c1cc(O)c(O)c(O)c1 [propyl gallate] | stable throughout the entire storage period | – | – | – | – | –
4.89 µM | O=c1c(O)c(-c2ccc(O)c(O)c2)oc2cc(O)cc(O)c12 [quercetin] | as effective as 37 mmole propyl gallate | 83% | Up to 94% | In 2 of 3 trials, quercetin was inhibitory | Effective inhibition | highly effective
